# Values quoted from earlier work, collected in patent publication US10927398B2, “Compositions for CYP450 phenotyping using saliva samples” (Concordia University, Inc., priority 2015, dated 2021).
# Read-outs that look alike come from different tables or passages of the source.
# Key:
# plasma protein = conditions: cited from earlier work
# [1] = cited from earlier work
# [2] = cited from earlier work; remark: listed apart in the source
# [3] = Table of Exemplary Drugs, CYP1A2
# [4] = Table of Exemplary Drugs, CYP3A4
# [5] = Table of Exemplary Drugs, CYP2D6
# [6] = Table of Exemplary Drugs, CYP2C9
# [7] = Table of Exemplary Drugs, CYP2C19
structure (smiles),measurement,setting,value
COc1ccc2cccc(CCNC(C)=O)c2c1 [Agomelatine],PLASMA PROTEIN BINDING,plasma protein; [3],95%
same,ORAL BIOAVAILABILITY,[1]; [3],<5%
same,HALF-LIFE,[2]; [3],1 to 2 h
"COc1cc2nc(N(C)CCCNC(=O)C3CCCO3)nc(N)c2cc1OC (stereo not drawn) [Alfazosin (Uroxatral), Alfazosin]",PLASMA PROTEIN BINDING,plasma protein; plasma,86%
same,ORAL BIOAVAILABILITY,"[1]; in vivo, po",49%
same,HALF-LIFE,[2]; in vivo,10 h
"Cc1nnc2n1-c1ccc(Cl)cc1C(c1ccccc1)=NC2 [Alprazolam (Xanax), Alprazolam]",PLASMA PROTEIN BINDING,plasma protein; [4],80%
same,ORAL BIOAVAILABILITY,[1]; [4],90%
same,HALF-LIFE,[2]; [4],11 h
C=CCc1ccccc1OCC(O)CNC(C)C (stereo not drawn) [Alprenolol],PLASMA PROTEIN BINDING,plasma protein; [5],80%
same,ORAL BIOAVAILABILITY,[1]; [5],20%
same,HALF-LIFE,[2]; [5],2 to 3 h
CN(C)CCC=C1c2ccccc2CCc2ccccc21 [Amitriptyline],PLASMA PROTEIN BINDING,plasma protein; [3],>90%
same,PLASMA PROTEIN BINDING,plasma protein; [6],>90%
same,PLASMA PROTEIN BINDING,plasma protein; [7],>90%
same,PLASMA PROTEIN BINDING,plasma protein; [5],>90%
same,ORAL BIOAVAILABILITY,[1]; [3],~43-46%
same,ORAL BIOAVAILABILITY,[1]; [6],30-60%
same,ORAL BIOAVAILABILITY,[1]; [7],30-60%
same,ORAL BIOAVAILABILITY,[1]; [5],~43-46%
same,HALF-LIFE,[2]; [3],~13 to 36 h
same,HALF-LIFE,[2]; [6],15 h
same,HALF-LIFE,[2]; [7],15 h
same,HALF-LIFE,[2]; [5],~13 to 36 h
"CCOC(=O)C1=C(COCCN)NC(C)=C(C(=O)OC)C1c1ccccc1Cl (stereo not drawn) [Amlodipine (Norvasc), Amlodipine]",ORAL BIOAVAILABILITY,[1]; [4],64-90%
CC(N)Cc1ccccc1 (stereo not drawn) [Amphetamine],ORAL BIOAVAILABILITY,"[1]; in vivo, po",100+%
"C[C@@H](O[C@H]1OCCN(Cc2n[nH]c(=O)[nH]2)[C@H]1c1ccc(F)cc1)c1cc(C(F)(F)F)cc(C(F)(F)F)c1 [Aprepitant (Emend), Aprepitant]",PLASMA PROTEIN BINDING,plasma protein; [4],95%
same,ORAL BIOAVAILABILITY,[1]; [4],60-65%
same,HALF-LIFE,[2]; [4],9 to 13 h
"COC(=O)N[C@H](C(=O)N[C@@H](Cc1ccccc1)[C@@H](O)CN(Cc1ccc(-c2ccccn2)cc1)NC(=O)[C@@H](NC(=O)OC)C(C)(C)C)C(C)(C)C [Atazanavir (Reyataz), Atazanavir]",PLASMA PROTEIN BINDING,plasma protein; [4],86%
same,ORAL BIOAVAILABILITY,[1]; [4],60-68%
same,HALF-LIFE,[2]; [4],7 h
CNCC[C@@H](Oc1ccccc1C)c1ccccc1 [Atomoxetine],PLASMA PROTEIN BINDING,plasma protein; [5],98%
same,ORAL BIOAVAILABILITY,[1]; [5],63%
same,HALF-LIFE,[2]; [5],5.2 h
"COc1ccccc1Oc1c(NS(=O)(=O)c2ccc(C(C)(C)C)cc2)nc(-c2ncccn2)nc1OCCO [Basentan (Tracleer), Basentan]",PLASMA PROTEIN BINDING,plasma protein; [4],98%
same,ORAL BIOAVAILABILITY,[1]; [4],50%
same,HALF-LIFE,[2]; [4],5 h
"CC(C)COCC(CN(Cc1ccccc1)c1ccccc1)N1CCCC1 (stereo not drawn) [Bepridil (Vascor), Bepridil]",ORAL BIOAVAILABILITY,[1]; [4],60%
same,HALF-LIFE,[2]; [4],42 h
"CC(C)C[C@H]1C(=O)N2CCC[C@H]2[C@]2(O)O[C@](NC(=O)[C@@H]3C=C4c5cccc6[nH]c(Br)c(c56)C[C@H]4N(C)C3)(C(C)C)C(=O)N12 [Bromocriptine (Parlodel), Bromocriptine]",PLASMA PROTEIN BINDING,plasma protein; [4],90-96% ^
same,ORAL BIOAVAILABILITY,[1]; [4],65-95%
same,HALF-LIFE,[2]; [4],6 to 20 h
"CCCC1O[C@@H]2C[C@H]3[C@@H]4CCC5=CC(=O)C=C[C@]5(C)[C@H]4[C@@H](O)C[C@]3(C)[C@]2(C(=O)CO)O1 (stereo partly drawn) [Budesonide (Entocort), Budesonide]",PLASMA PROTEIN BINDING,plasma protein; [4],85-90% ^
same,ORAL BIOAVAILABILITY,[1]; [4],9-21%
same,HALF-LIFE,[2]; [4],2 to 3.6 h
COc1ccccc1OCCNCC(O)COc1cccc2[nH]c3ccccc3c12 (stereo not drawn) [Carvedilol],PLASMA PROTEIN BINDING,plasma protein; [5],95-98% ^
same,ORAL BIOAVAILABILITY,[1]; [5],25-35%
same,HALF-LIFE,[2]; [5],6 to 10 h
CN(C)CCCN1c2ccccc2Sc2ccc(Cl)cc21 [Chlorpromazine],PLASMA PROTEIN BINDING,plasma protein; [5],90-99% ^
same,ORAL BIOAVAILABILITY,[1]; [5],32%
same,HALF-LIFE,[2]; [5],6 h
COc1cc2c(c(OC)c1OC)-c1ccc(OC)c(=O)cc1[C@@H](NC(C)=O)CC2 [Colchicine],ORAL BIOAVAILABILITY,[1]; [4],45%
same,HALF-LIFE,[2]; [4],26.6 to 31.2 h
"Nc1ccc(S(=O)(=O)c2ccc(N)cc2)cc1 [Dapsone (Avlosulfon), Dapsone]",PLASMA PROTEIN BINDING,plasma protein; [4],70-90% ^
same,ORAL BIOAVAILABILITY,[1]; [4],86-104%
"CC(C)CN(C[C@@H](O)[C@H](Cc1ccccc1)NC(=O)O[C@H]1CO[C@H]2OCC[C@H]21)S(=O)(=O)c1ccc(N)cc1 [Darunavir (Prezista), Darunavir]",ORAL BIOAVAILABILITY,[1]; [4],37%
O=C(O)Cc1ccccc1Nc1c(Cl)cccc1Cl [Diclofenac],ORAL BIOAVAILABILITY,[1]; [6],50%
same,HALF-LIFE,[2]; [6],1.9 to 2.2 h
"CN1C[C@H](C(=O)N[C@]2(C)O[C@@]3(O)[C@@H]4CCCN4C(=O)[C@H](Cc4ccccc4)N3C2=O)C=C2c3cccc4[nH]cc(c34)C[C@H]21 [Ergotamine (Ergomar), Ergotamine]",ORAL BIOAVAILABILITY,"[1]; in vivo, po",<5%
same,HALF-LIFE,[2]; in vivo,1.5 to 2.5 h
"CCC1(C)CC(=O)NC1=O (stereo not drawn) [Ethosuximide (Zarontin), Ethosuximide]",ORAL BIOAVAILABILITY,[1]; [4],93%
same,HALF-LIFE,[2]; [4],25 to 60 h
"CCOC(=O)C1=C(C)NC(C)=C(C(=O)OC)C1c1cccc(Cl)c1Cl (stereo not drawn) [Felodipine (Plendil), Felodipine]",ORAL BIOAVAILABILITY,[1]; [4],13-20%
"CC(C)(C)NC(=O)[C@H]1CC[C@H]2[C@@H]3CC[C@H]4NC(=O)C=C[C@]4(C)[C@H]3CC[C@]12C [Finasteride (Proscar), Finasteride]",ORAL BIOAVAILABILITY,[1]; [4],65%
same,HALF-LIFE,[2]; [4],4.5 h
